From the supplement of paper PMC10307832

What was measured:
Experiment in all cases: relative viability (nuclei count vs DMSO), 5 days (fraction); higher = more cells survive
GSK-J4 + OSI-027 = compound: CCOC(=O)CCNc1cc(N2CCc3ccccc3CC2)nc(-c2ccccn2)n1 [GSK-J4] + COc1cccc2cc(-c3nc([C@H]4CC[C@H](C(=O)O)CC4)n4ncnc(N)c34)[nH]c12 [OSI-027] (partner 0.5 µM)
Procedure, shortened: (§1)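 Lung cancer cell lines were seeded in 1536-well plates and dosed by pin tool the next day, with either a single drug or a fixed anchor-drug dose combined with five library-drug doses (not always all listed) spaced in √10 steps. Five days later, one step fixed the cells and stained their nuclei (final 0.05% Triton X-100, 1% formaldehyde, 1 ug/ml Hoechst), and nuclei were counted on 4× images. Relative viability is the nuclei count in treated wells divided by the count in vehicle wells, and each value is the median of duplicate plates.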

GSK-J4 + Vorinostat = compound: CCOC(=O)CCNc1cc(N2CCc3ccccc3CC2)nc(-c2ccccn2)n1 [GSK-J4] + O=C(CCCCCCC(=O)Nc1ccccc1)NO [Vorinostat] (partner 1 µM)
Procedure, shortened: as §1

AZ3146 + Navitoclax = compound: CN1CCC(CC1)OC2=CC(=C(C=C2)NC3=NC=C4C(=N3)N(C(=O)N4C)C5CCCC5)OC [AZ3146] + CC1(C)CCC(c2ccc(Cl)cc2)=C(CN2CCN(c3ccc(C(=O)NS(=O)(=O)c4ccc(N[C@H](CCN5CCOCC5)CSc5ccccc5)c(S(=O)(=O)C(F)(F)F)c4)cc3)CC2)C1 [Navitoclax] (partner 0.5 µM)
Procedure, shortened: as §1

AZ3146 + Linsitinib = compound: CN1CCC(CC1)OC2=CC(=C(C=C2)NC3=NC=C4C(=N3)N(C(=O)N4C)C5CCCC5)OC [AZ3146] + C[C@]1(O)C[C@@H](c2nc(-c3ccc4ccc(-c5ccccc5)nc4c3)c3c(N)nccn32)C1 [Linsitinib] (partner 1 µM)
Procedure, shortened: as §1

Cell Line	relative viability (GSK-J4 + OSI-027; first compound 0.5 µM)	relative viability (GSK-J4 + OSI-027; first compound 1.581 µM)	relative viability (GSK-J4 + OSI-027; first compound 5 µM)	relative viability (GSK-J4 + OSI-027; first compound 15.81 µM)	relative viability (GSK-J4 + OSI-027; first compound 50 µM)	relative viability (GSK-J4 + Vorinostat; first compound 0.5 µM)	relative viability (GSK-J4 + Vorinostat; first compound 1.581 µM)	relative viability (GSK-J4 + Vorinostat; first compound 5 µM)	relative viability (GSK-J4 + Vorinostat; first compound 15.81 µM)	relative viability (GSK-J4 + Vorinostat; first compound 50 µM)	relative viability (AZ3146 + Navitoclax; first compound 0.08 µM)	relative viability (AZ3146 + Navitoclax; first compound 0.253 µM)	relative viability (AZ3146 + Navitoclax; first compound 0.8 µM)	relative viability (AZ3146 + Navitoclax; first compound 2.53 µM)	relative viability (AZ3146 + Navitoclax; first compound 8 µM)	relative viability (AZ3146 + Linsitinib; first compound 0.08 µM)	relative viability (AZ3146 + Linsitinib; first compound 0.253 µM)	relative viability (AZ3146 + Linsitinib; first compound 0.8 µM)	relative viability (AZ3146 + Linsitinib; first compound 2.53 µM)	relative viability (AZ3146 + Linsitinib; first compound 8 µM)
NCI-H1666	0.836	0.738	1.15	0.763	0.648	0.956	0.931	0.97	1.01	0.737	0.859	0.805	0.951	1.05	0.81	0.738	0.862	0.906	0.829	0.858
NCI-H1734	0.544	0.518	0.489	0.445	0.372	0.749	0.788	0.609	0.645	0.5	0.821	0.828	0.831	0.847	0.846	0.787	0.871	0.965	0.877	0.934
NCI-H1755	0.623	0.468	0.571	0.553	0.509	0.675	0.638	0.694	0.577	0.536	0.992	1	0.948	1.03	1.01	0.885	1.02	0.932	1.01	0.972
NCI-H1793	0.36	0.215	0.258	0.167	0.2	0.942	0.586	0.663	0.358	0.284	0.437	0.311	0.46	0.492	0.436	0.841	0.921	0.638	0.813	1.02
NCI-H1915	0.598	0.578	–	0.595	0.657	0.452	0.481	–	0.417	0.483	0.783	0.807	0.807	0.816	0.814	1.09	1.12	1.09	1.1	1.11
NCI-H1944	0.466	0.399	0.309	0.296	0.355	0.566	0.477	–	0.419	0.427	–	1.02	1	1.13	1.15	–	1.11	1.14	1.21	1.35
NCI-H1975	0.692	0.677	0.46	0.675	0.681	0.662	0.689	0.637	0.632	0.71	1.19	1.18	1.14	1.17	1.01	0.988	0.986	1	0.978	0.352
NCI-H1993	0.536	0.485	0.646	0.563	0.527	1.15	0.708	0.804	0.601	0.409	0.972	0.935	0.993	0.929	0.898	0.689	0.731	0.782	0.789	0.704
NCI-H2009	0.573	0.491	0.601	0.527	0.283	0.731	0.622	0.56	0.682	0.259	1.02	1.27	1.2	1.25	1.03	1.09	1.22	1.22	1.27	1.16
NCI-H2023	0.409	–	0.403	0.321	0.194	0.59	0.497	0.545	0.514	0.283	0.887	1.08	1.06	1.04	0.652	0.743	0.694	0.612	0.677	0.546
NCI-H2085	0.796	0.66	0.569	0.459	0.515	0.767	0.731	0.697	0.634	0.728	1.03	1.14	1.06	1.08	1.03	0.898	0.848	0.956	0.912	0.727
NCI-H2087	0.552	–	0.851	0.542	0.421	0.638	0.68	0.544	0.842	0.811	1.04	1.06	1.08	1.05	0.968	0.816	0.952	1.11	1.02	1
NCI-H2126	0.706	0.7	0.949	0.576	0.45	0.762	0.659	0.872	0.572	0.567	0.8	0.843	0.896	0.861	0.849	0.687	0.667	0.761	0.739	0.696
NCI-H2228	0.593	0.544	0.616	0.415	0.459	0.642	0.873	0.823	0.617	0.797	0.901	0.8	0.961	0.935	0.845	1	0.867	0.657	0.628	0.774
NCI-H2347	0.449	0.347	0.617	–	0.338	0.605	0.558	0.586	0.518	0.538	0.76	0.763	0.594	0.88	0.833	1.01	0.893	0.891	0.887	0.988
NCI-H2405	0.682	0.703	–	0.521	0.556	0.973	0.925	–	0.923	0.974	0.836	–	1	0.859	1.08	0.973	–	1.04	0.937	0.747
